{"source": "patent US20260023087A1", "about": "“A Novel Chemogenetic Tool Permitting Modulation of Intracellular pH” (ISTANBUL MEDIPOL UNIVERSITESI, priority 2023, published 2026)", "key": {"DsRed-stDCyD": {"biological_target": "T1, DsRed-stDCyD (Salmonella typhimurium, UniProt Q8ZNT7)", "T1 construct": "expressed in transfected cells; host or cells: HEK293 / HEK293T", "T1 sequence (Q8ZNT7 whole entry, added parts left off)": "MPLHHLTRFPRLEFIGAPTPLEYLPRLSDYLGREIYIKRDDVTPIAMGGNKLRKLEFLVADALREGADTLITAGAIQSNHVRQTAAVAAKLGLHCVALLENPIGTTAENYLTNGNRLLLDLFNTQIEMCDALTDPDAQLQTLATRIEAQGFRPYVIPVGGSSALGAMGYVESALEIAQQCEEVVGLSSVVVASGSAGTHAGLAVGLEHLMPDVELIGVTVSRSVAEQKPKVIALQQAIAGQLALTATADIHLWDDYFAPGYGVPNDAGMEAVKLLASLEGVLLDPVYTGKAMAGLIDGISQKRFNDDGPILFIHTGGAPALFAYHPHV", "assay": "SypHer3s live-cell imaging of intracellular pH in HEK293T cells expressing pH-Control, substrates administered", "format": "cell-based, human", "details": "for selectivity test: enzyme response in comparison to βCDA: FIG. 1f; for ability to acidify cell compartments: cells expressing stDCyD", "experimental": "(§1) For live-cell imaging experiments, a HEPES-buffered physiological solution was used consisting of 2 mM CaCl2, 5 mM KCl, 138 mM NaCl, 1 mM MgCl2, 10 mM HEPES, 10 mM D-Glucose, and pH was adjusted to 7.43 using 1 M NaOH. For experiments with nigericin (N7143, Merck) and monensin (M5273, Merck), imaging buffered contained 5 mM KCl, 138 mM NaCl, 1 mM MgCl2, 20 mM HEPES, 10 mM D-Glucose, 0.2 mM EGTA and pH was adjusted to the desired value using either 1 M NaOH or 1M HCl. To prepare β-Chloro-D-alanine solutions, the powder was dissolved in imaging buffer and the pH was readjusted to 7.43.\n(§2) Characterization studies have been performed in cultured human embryonic kidney cells (HEK293), grown in a high-glucose (4.5 g/L) complete medium including 10% FBS and 100 μg/ml streptomycin and 100 U/ml penicillin in a humidified incubator (37° C., 5% CO2). 24 hours before transfection, cells were seeded (˜3×10^5 cells per well) on a 30 mm glass coverslips No.1 (Glaswarenfabrik Karl Knecht Sondheim, Germany). At ˜70-80% confluency, cells were co-transfected with CMV-driven mammalian expression vectors (pLenti-MP2) encoding for differential targeted SypHer3s or DsRed-stDCyD enzymes using PolyJet transfection reagent according to the manufacturer's instructions. All imaging experiments were performed 24 h after transfection. HEK293T cells were cultured up to passage 30.\nWidefield imaging experiments were performed on a Zeiss Axio Observer.Z1/7 (Carl Zeiss AG, Oberkochen, Germany) equipped with an LED light source Colibri 7 (423/44 nm, 469/38 nm, 555/30), PlanApochromat 20x/0.8 dry objective, Plan-Apochromat 40x/1.4 oil immersion objective, a monochrome CCD camera Axiocam 503. A custom-made pump-driven perfusion system was used to administrate and withdraw substrates to cells placed in a metal perfusion chamber (NGFI, Graz, Austria). SypHer signals were imaged by alternately exciting cells using a motorized dual-filter wheel equipped with beam splitters (FT455 (for SypHer low, F420) and FT495 (for SypHer high, F490)). Emissions were alternately collected using a bandpass filter (BP 525/50). DsRed-stDyCD emission was collected using the filter combinations FT570 (BS) and emission filter 605/70. During live-imaging data acquisition was performed using Zen Blue 3.1 Pro software (Carl Zeiss AG, Oberkochen, Germany). Confocal imaging was performed using a laser scanning confocal microscope LSM 800 (Zeiss, Germany) equipped with a Plan-Apochromat 40x/1.3 DIC (UV) VIS-IS oil immersion objective. SypHer biosensors were excited with a 488 nm and 405 nm laser, and emissions were collected using a 509 nm filter system. SypHer signals were acquired with an A GaAsP-PMT detector and 400-565 nm filter using a Multialkali-PMT detector. DsRed-stDCyD constructs were excited using a 561 nm laser, and the emission wavelength was captured between 616 and 700 nm. The digital detector gain for all channels was set at 1; detector gain was applied between 500 and 1000 V. Laser intensities were set between 0.90% and 0.95%, and the pinhole was set between 29 and 32 μm according to the expression level of the fluorescent proteins. Bright-field mode was imaged using a photodiode detector. Zen Blue 3.1 software (Zeiss, Germany) was used to determine regions of interest."}, "[1]": {"test_system": "mouse primary dorsal root ganglion (DRG) neurons", "assay": "Membrane potential imaging with voltage sensor ASAP2s in DRG neurons co-expressing pH-Control", "format": "cell-based", "details": "10 mM βCDA versus high extracellular potassium (50 mM)", "experimental": "(§3) Primary Neuron Culture: WT C57BL/6 mice were euthanized via cervical dislocation. Bilateral DRGs from all segments were dissected and then put in an ice-cold RPMI 1640 medium (R0883, Gibco). For enzymatic dissociation, ganglia were incubated with 100 U/mL collagenases (C9407, Sigma) in a neural medium containing 2% B27 (17504-044, Gibco), 2 mM Glutamax-I (35050-61, Gibco), 100 U penicillin, and […] (15140-122, Gibco) in Neural Basal Medium (NBA, 10888-022, Gibco) at 37C, 5% CO2. Following a 40 min incubation time, the medium containing collagenase was removed, and the ganglia were washed using Hank's buffered salt solution (H9269, Sigma). The ganglia were further enzymatically dissociated using 1 mg/mL trypsin (25300-054, Gibco) in the neural medium for 15 min at 37° C., 5% CO2. At the end of incubation, […] DNAse (D4513, Sigma) was added to the trypsin solution cell suspension to inhibit free DNA fragments, and the tissues were triturated by pipetting to obtain single cells. 30 min after incubation at 37° C., 5% CO2, the cell suspension was spun at 120 g for 3 min and resuspended neural medium supplemented with 10% fetal calf serum and […] trypsin inhibitor (T6522, Sigma) to inhibit enzymatic activity. […]"}, "HEK293T cells [2]": {"test_system": "HEK293T cells", "assay": "SypHer3s live-cell imaging of intracellular pH in cells without the enzyme", "format": "cell-based, human", "experimental": "as §1\nas §2, with “30. […]” for “30.”"}, "[3]": {"test_system": "mouse primary dorsal root ganglion (DRG) neurons", "assay": "SypHer3s imaging in primary DRG neurons expressing pH-Control", "format": "cell-based", "details": "different concentrations (10 or 1 mM, FIG. 1h)", "experimental": "as §3"}, "HEK293T cells [4]": {"test_system": "HEK293T cells", "assay": "Overcorrection of intracellular pH after acute acidification, with and without monensin and nigericin", "format": "cell-based, human", "details": "10 μM nigericin and 10 μM monensin together", "experimental": "FIG. 7. Overcorrection of intracellular pH levels following acute acidification. (left) Real-time traces of HEK293T cells expressing SypHer and pH-Control in response to 1 mM βCDA in the presence (pink curve and (right) bars, n= 3/15) and absence (green curve and (right) bars n= 3/13) 10 μM nigericin and 10 μM monensin that permeabilize the plasma membrane. Student's t-test has been applied.\nas §1\nWidefield imaging experiments were performed on a Zeiss Axio Observer.Z1/7 (Carl Zeiss AG, Oberkochen, Germany) equipped with an LED light source Colibri 7 (423/44 nm, 469/38 nm, 555/30), PlanApochromat 20x/0.8 dry objective, Plan-Apochromat 40x/1.4 oil immersion objective, a monochrome CCD camera Axiocam 503. […]"}}}
{"compound": "N[C@H](CS)C(=O)O", "note": "[D-Cysteine]", "values": [{"measurement": "decrease in pHi", "setting": "DsRed-stDCyD; 10 mM", "result": "marginal decrease in pHi"}]}
{"compound": "N[C@@H](CCl)C(=O)O", "note": "[βCLA, β-chloro-L-alanine]", "values": [{"measurement": "selectivity test: enzyme response in comparison to βCDA", "setting": "DsRed-stDCyD", "result": "marginal responses"}]}
{"compound": "N[C@H](CCl)C(=O)O", "note": "[βCDA, β-chloro-D-alanine]", "values": [{"measurement": "depolarization of membrane potential (ASAP2s)", "setting": "[1]", "result": "depolarized primary neurons even stronger than high extracellular potassium"}, {"measurement": "SypHer response of cells only expressing SypHer", "setting": "HEK293T cells [2]; different levels of substrate (FIG. 1e, right panel)", "result": "remained unresponsive"}, {"measurement": "SypHer3s response of wild-type cells without the enzyme", "setting": "HEK293T cells [2]; same high-concentration treatment (13.4 mM, FIG. 1c)", "result": "marginal response"}, {"measurement": "biosensor signal after withdrawal of substrate", "setting": "DsRed-stDCyD; after recovery, indicates cellular alkalization (FIGS. 1c, 1g, 5a)", "result": "overshot the baseline"}, {"measurement": "SypHer response to different levels of substrate", "setting": "DsRed-stDCyD; cells expressing pH-Control, constitutive administration of different levels (FIG. 1e)", "result": "concentration-dependent and fully reversible SypHer response"}, {"measurement": "intracellular acidification documented by SypHer3s", "setting": "DsRed-stDCyD; cells expressing pH-Control, high concentrations of βCDA (13.4 mM, FIG. 1c)", "result": "robust intracellular acidification"}, {"measurement": "ability to acidify cell compartments", "setting": "DsRed-stDCyD", "result": "can acidify cell compartments"}, {"measurement": "SypHer3s signals in DRG neurons", "setting": "[3]", "result": "robust SypHer3s signals"}]}
{"compound": "CO[C@@H]1C[C@@H](C[C@H]2CC[C@H](C)[C@H]([C@@H](C)C(=O)O)O2)O[C@]2(O[C@](C)([C@H]3CC[C@@](C)([C@@H]4O[C@@H]([C@H]5O[C@@](O)(CO)[C@H](C)C[C@@H]5C)C[C@@H]4C)O3)C[C@H]2C)[C@@H]1C", "note": "[nigericin]", "values": [{"measurement": "intracellular pH overcorrection after withdrawal of 1 mM βCDA", "setting": "HEK293T cells [4]", "result": "diminished"}]}
{"compound": "CC[C@@]1([C@@H]2O[C@@H]([C@H]3O[C@@](O)(CO)[C@H](C)C[C@@H]3C)C[C@@H]2C)CC[C@H]([C@]2(C)CC[C@]3(C[C@H](O)[C@@H](C)[C@@H]([C@@H](C)[C@@H](OC)[C@H](C)C(=O)O)O3)O2)O1", "note": "[monensin]", "values": [{"measurement": "intracellular pH overcorrection after withdrawal of 1 mM βCDA", "setting": "HEK293T cells [4]", "result": "diminished"}]}
{"compound": "C[C@@H](N)C(=O)O", "note": "[D-alanine]", "values": [{"measurement": "selectivity test: enzyme response in comparison to βCDA", "setting": "DsRed-stDCyD", "result": "remained agnostic"}, {"measurement": "ability to acidify cell compartments", "setting": "DsRed-stDCyD", "result": "not"}]}
